Test results published in PubChem BioAssay AID1996.
Values after ≈ are worked out from the molar mass of the structure shown.

conditions: buffer; pH 7.4; 200.0 µM

SMILES | solubility kinetic
O=C(OCC(=O)N1CCCc2ccccc21)c1ccccc1OC(F)F | 29.7 µg/mL (≈ 82.2 µM)
COc1cc2nc(N3CCN(C(=O)c4ccco4)CC3)nc(N)c2cc1OC.Cl | 61.9 µg/mL
Cc1ccc(OCCn2cnc(Cl)c2Cl)cc1 | 31.7 µg/mL (≈ 117 µM)
CCOc1ccccc1NC(=O)c1ccc2c(c1)C(=O)N(CC(C)C)C2=O | < 0.4 µg/mL
OCCCc1cn(-c2ccccc2)c2ccccc12 | 22.1 µg/mL (≈ 87.9 µM)
COc1cccc(Oc2c(C)oc3c(CN4CCCC4)c(O)ccc3c2=O)c1 | 40.6 µg/mL (≈ 106 µM)
COc1ccc(N(C(C)C(=O)N2CCCC2)S(C)(=O)=O)cc1 (centres undefined) | > 49 µg/mL
O=C(CCCc1ccccc1)NCc1ccccc1Cl | 32.9 µg/mL (≈ 114 µM)
CC(=O)c1c(C)n(-c2ccc(C)cc2C)c2ccc(O)cc12 | < 0.6 µg/mL
CC1CN(C(=O)CCNC(=O)c2ccc(Cl)cc2)CC(C)O1 (centres undefined) | 42.1 µg/mL (≈ 130 µM)
Cc1ccc(C)c(C(C)NC(=O)C2CC=CCC2C(=O)O)c1 (centres undefined) | > 45.2 µg/mL
CC1CCN(C(=O)CCNC(=O)c2ccccc2Cl)CC1 | 41.1 µg/mL (≈ 133 µM)
COc1cccc(CNC(=O)CCCSc2ccccc2)c1 | 35 µg/mL (≈ 111 µM)
Cn1c(=O)n(C)c2cc(NC(=O)COc3ccc(F)cc3)ccc21 | 40.7 µg/mL (≈ 124 µM)
O=C(NCCN1CCCCC1)c1cc(Cl)ccc1Cl | 39.8 µg/mL (≈ 132 µM)
O=C(Nc1ccc(S(=O)(=O)Nc2ccccn2)cc1)C(F)(F)F | > 51.8 µg/mL
COc1ccc(NC(=S)Nc2ccc3nccnc3c2)cc1 | 22.8 µg/mL (≈ 73.5 µM)
CC(=O)Nc1cc(NC(C)=O)cc(-c2nc3ccccc3[nH]2)c1 | > 46.3 µg/mL
O=C(CCN1C(=O)C2CC=CCC2C1=O)Nc1nccs1 (centres undefined) | > 45.8 µg/mL
COc1ccc(OC)c(/C=C/c2c([N+](=O)[O-])c(=O)n(C)c(=O)n2C)c1 | 3.4 µg/mL (≈ 9.79 µM)
C=CCNC(=O)C1CC1(c1ccc(C)cc1)c1ccc(C)cc1 (centres undefined) | 30.6 µg/mL (≈ 100 µM)
COc1ccc(OC)c(NC(=O)CCCc2ccccc2)c1 | 24.5 µg/mL (≈ 81.8 µM)
COc1cc(CSc2nc(-c3ccccc3)cc(=O)[nH]2)cc(OC)c1 | < 0.4 µg/mL
Cc1cc(N)ccc1NC(=O)CN1CCCC1 | 23.1 µg/mL (≈ 99 µM)

SMILES | solubility kinetic
O=C(O)c1cc(S(=O)(=O)N2CC3CC3C2C(=O)O)c(Cl)cc1Cl (centres undefined) | 52.3 µg/mL (≈ 138 µM)
CC(C)OC(=O)c1cc2c(=O)[nH]c(C(Cl)(Cl)Cl)nc2o1 | 47.6 µg/mL (≈ 140 µM)
N#CCNC1CC(=O)N(c2ccccc2)C1=O (centres undefined) | > 34.4 µg/mL
CC(C)N(Cc1cc2ccccc2[nH]c1=O)C(=O)c1ccco1 | > 46.6 µg/mL
CC(=O)C1=C(C)NC(=O)CC1c1ccc(F)cc1 (centres undefined) | > 37.1 µg/mL
Cc1ccc(C2(c3ccc(C)cc3)NC(=O)N(CC(=O)NCCCN3CCCC3=O)C2=O)cc1 | > 69.4 µg/mL
CCc1ccccc1NC(=O)NCc1ccc2c(c1)OCO2 | 0.7 µg/mL (≈ 2.35 µM)
O=C(O)c1ccc(CNC(=O)c2ccc(C(F)(F)F)cc2)cc1 | > 48.5 µg/mL
CCOC(=O)Cc1csc(CC(N)=O)[nH+]1.[Cl-] | > 39.7 µg/mL
COc1cc(C(=O)Nc2ccncc2)c([N+](=O)[O-])cc1OC | > 45.5 µg/mL
O=C(CCc1c[nH]c2ccccc12)NCCc1ccc(Cl)cc1 | 4.2 µg/mL (≈ 12.9 µM)
O=C(Nc1cccc(S(=O)(=O)NC2=NCCC2)c1)c1ccc(F)cc1 | > 54.2 µg/mL
CCCCCCCOc1ccc(C2CC(=O)N(C)C2=O)cc1 (centres undefined) | 3.1 µg/mL (≈ 10.2 µM)
Cl.OC(CNCc1ccncc1)c1ccccc1 (centres undefined) | > 39.7 µg/mL
COc1cc2c(cc1OC)CN(C(=S)Nc1ccc(Cl)cc1)CC2 | < 0.4 µg/mL
CCOC(=O)N1CCN(C(=O)/C=C/c2ccc(OC)c(OC)c2)CC1 | 51.5 µg/mL (≈ 148 µM)
O=C(CC12CC3CC(CC(C3)C1)C2)NC1CC1 | 30 µg/mL (≈ 129 µM)
Cc1[nH]c2ccc(C(=O)NCCCN3CCCCC3)cc2c1C | > 47 µg/mL
Fc1ccc(NC(=S)Nc2cccnc2)c(Cl)c1 | > 42.3 µg/mL
OCc1cccc[n+]1CCc1ccccc1.[Br-] | > 44.1 µg/mL
CC1(C)CC(=O)N(c2ccc(C#N)cc2)C(=O)C1 | > 36.3 µg/mL
O=C(NC1CCCCCCC1)c1cc([N+](=O)[O-])ccc1Cl | 8.5 µg/mL (≈ 27.4 µM)
O=C(CCN1C(=O)C2C3CCC(C3)C2C1=O)OCC(=O)c1ccccc1 (centres undefined) | 52.9 µg/mL (≈ 149 µM)
Cc1nc2ccccc2c(=O)n1-c1ccc(F)cc1F | 36.9 µg/mL (≈ 136 µM)

SMILES | solubility kinetic
CCOc1ccc(C(=O)n2cc(C(=O)OC)c3ccccc32)cc1OCC | 3.9 µg/mL (≈ 10.6 µM)
COC(=O)c1ccc(S(=O)(=O)N2CCC(O)CC2)n1C | > 45.4 µg/mL
NC(=O)Nc1ccc(C(=O)OCC(=O)Nc2ccc(Cl)cn2)cc1 | 5.1 µg/mL (≈ 14.6 µM)
CCOC(=O)C(NC(C)=O)(NC(C)C)C(F)(F)F (centres undefined) | 2.2 µg/mL (≈ 8.14 µM)
Cc1cc2oc(C(=O)NCc3ccccc3)cc(=O)c2cc1C | 0.9 µg/mL (≈ 2.93 µM)
COc1ccc(C(C)(C)C)cc1NC(=O)c1ccc[n+]([O-])c1 | > 45.1 µg/mL
CCC(=O)Nc1c(-c2ccccc2)c(=O)c2ccccc2n1C | 44.9 µg/mL (≈ 147 µM)
COc1ccc(-c2c(=O)n(OC)c3ccccc3[n+]2[O-])cc1OC | > 49.2 µg/mL
O=C1[C@@H]2C(c3cccnc3)=NO[C@@H]2C(=O)N1c1ccc2ccccc2c1 | 43 µg/mL (≈ 125 µM)
C=C(C)COc1ccc(-c2ncncc2-c2ccccc2OC)c(O)c1 | 5.5 µg/mL (≈ 15.8 µM)
O=C(Nc1cccc2ncccc12)c1ccccc1F | 39.7 µg/mL (≈ 149 µM)
CCOc1ncccc1C(=O)OCC(=O)Nc1ccc2c(c1)CCC2 | 8.1 µg/mL (≈ 23.8 µM)
O=C(COc1ccccc1)NCC1COc2ccccc2O1 (centres undefined) | 44.8 µg/mL (≈ 150 µM)
Cc1c(C(=O)O)c(C(=O)O)c2n1CCS2 | > 34.1 µg/mL
CC(=O)N1CCC(N(C(=O)Nc2ccc(Cl)cc2)C(C)C)CC1 | > 50.7 µg/mL
CCc1nc2sc3c(c2c(=O)n1CCO)CCC3 | > 39.7 µg/mL
CN1CCN(C(=O)/C=C/c2ccc(C#N)cc2)CC1 | > 38.3 µg/mL
CCCCC/C(=N/O)c1c(C)[nH]c2ccccc12 | 29.8 µg/mL (≈ 122 µM)
Cc1ccc(NC(=S)NCCc2c[nH]c3ccccc23)c(C)c1 | 20.4 µg/mL (≈ 63.1 µM)
CCc1nc(N2CCCCC2C(=O)O)c2oc3ccccc3c2n1 (centres undefined) | > 48.8 µg/mL
CC1(C)Cc2cccc(OCC(=O)NCc3cccs3)c2O1 | > 47.6 µg/mL
Clc1ccccc1OCCCCN1CCCCC1 | 39.9 µg/mL (≈ 149 µM)
COc1cccc(C(=O)OCC(=O)N2CCc3ccccc3C2)c1OC | 11.7 µg/mL (≈ 32.9 µM)
O=C1N(CCCl)c2ccc(Br)cc2C12OCCO2 | 48.1 µg/mL (≈ 145 µM)

SMILES | solubility kinetic
Cc1cccc(OCCSc2nc3ncnc(N)c3[nH]2)c1 | 1.5 µg/mL (≈ 4.98 µM)
COc1cc(Br)c(CC(=O)NC2CC2)cc1OC | > 47.1 µg/mL
O=C(O)CC1(CC(=O)NCc2ccccn2)CCCCC1 | > 43.6 µg/mL
Cc1ccc(NC(=O)Cn2c(=O)oc3ccccc32)cc1Cl | 0.9 µg/mL (≈ 2.84 µM)
Cc1cccc(N2CCN(C(=O)c3cc4cc(F)ccc4[nH]3)CC2)c1C | 0.6 µg/mL (≈ 1.71 µM)
CN(C)c1cccc(C(=O)Nc2nc3ccccc3[nH]2)c1 | 12.1 µg/mL (≈ 43.2 µM)
CN1CCC(N(C)C(=O)c2ccc(Cl)c(S(=O)(=O)N(C)c3ccc(Cl)cc3)c2)CC1 | > 70.6 µg/mL
O=C(Nc1cccc(F)c1)Nc1ccc2c(c1)OCO2 | 4.4 µg/mL (≈ 16 µM)
O=C(Nc1ccccc1O)c1ccc([N+](=O)[O-])cc1 | 24.1 µg/mL (≈ 93.3 µM)
C=CC[N+]1(CC=C)CCOCC1.[Br-] | > 37.2 µg/mL
Cc1cc(C(=O)Nc2ccc(C#N)cc2)on1 | 10.3 µg/mL (≈ 45.3 µM)
CCCCNC(=O)COC(=O)c1ccccc1F | 37.9 µg/mL (≈ 150 µM)
O=C(CSc1nc2ccccc2o1)Nc1nccs1 | 2 µg/mL (≈ 6.86 µM)
Cc1ccc(CSc2[nH]c(=O)ncc2C)cc1 | 11 µg/mL (≈ 44.7 µM)
OC(CNCc1ccc2c(c1)OCO2)COc1ccc(F)cc1 (centres undefined) | > 47.9 µg/mL
CCN1CCN(c2nc(Nc3cccc(F)c3)nc(N)c2[N+](=O)[O-])CC1 | > 54.2 µg/mL
C=CCN(c1ccccc1)S(=O)(=O)c1c(C)[nH]c(=O)[nH]c1=O | > 48.2 µg/mL
Cc1ccc([N+](=O)[O-])c(OCCN2C(=O)NC(C)(C)C2=O)c1 | > 46.1 µg/mL
CC(C)n1c(NCCO)nc2ccccc21 | > 32.9 µg/mL
Cc1ccc(NC(=O)c2cc3c(s2)CCCC3)cc1 | 4 µg/mL (≈ 14.7 µM)
O=C(/C=C/c1ccc(F)cc1)N1CCN(Cc2ccccc2)CC1 | 44.5 µg/mL (≈ 137 µM)
COc1ccc(CCCC(=O)NCCc2ccccc2)c(C)c1 | 10.5 µg/mL (≈ 33.7 µM)
OCCNc1cc(Cl)ncn1 | > 26 µg/mL
Cc1ccnc(N2CCC(C(=O)NCc3ccc(F)cc3)CC2)n1 | 16.7 µg/mL (≈ 50.9 µM)

SMILES | solubility kinetic
CCOc1ccc(OCc2ccc(C(=O)NC(C)(C)C)o2)cc1 | 8.8 µg/mL (≈ 27.7 µM)
Cc1ccc(NP(=O)(c2ccccc2)c2nc3ccccc3s2)cc1 (centres undefined) | 2.2 µg/mL (≈ 6.04 µM)
Cc1cccc(C(=O)OCC(=O)N2CCc3ccccc3C2)c1O | 6.8 µg/mL (≈ 20.9 µM)
CC(NC(=O)CSc1ccccc1C(=O)O)C1CC2CCC1C2 (centres undefined) | > 50 µg/mL
COc1cc2c(cc1OC)CN(C(=O)CCN1C(=O)C3CCCCC3C1=O)CC2 (centres undefined) | 46.2 µg/mL (≈ 115 µM)
O=C(COC(=O)c1ccncc1)c1ccccc1 | > 36.2 µg/mL
O=C(NC(=S)Nc1ccc(F)cc1)C1CCCCC1 | 1.3 µg/mL (≈ 4.64 µM)
CCOC(=O)c1cncc(O)c1 | > 25.1 µg/mL
COc1cccc(CN(C)C(=O)c2ccc(N3CCCC3)c([N+](=O)[O-])c2)c1 | 21.9 µg/mL (≈ 59.3 µM)
CCCCNC(=O)[C@@H]1CSC2c3ccccc3C(=O)N21 (some centres undefined) | > 43.6 µg/mL
CC1=[N+](C)N(c2ccccc2)C(=O)C1N=C/C=C/c1ccccc1 (centres undefined) | > 47.8 µg/mL
O=[N+]([O-])c1ccc(NC(=S)NCc2ccc(F)cc2)cc1 | 4.5 µg/mL (≈ 14.7 µM)
C=CCN(CC=C)S(=O)(=O)c1ccc(NC(=S)NC(=O)C2CC2)cc1 | 7.8 µg/mL (≈ 20.6 µM)
COc1ccccc1OCC(=O)Nc1ccc2c(c1)n(C)c(=O)n2C | > 51.2 µg/mL
CC1CC=C(c2ccccc2)C(=S)N1 (centres undefined) | > 30.5 µg/mL
Cc1ccc(CNC(=O)CNC(=O)c2ccc(Br)o2)cc1 | 14.6 µg/mL (≈ 41.6 µM)
CCOC(=O)N1CCN(C(=O)C2CCN(C(=O)Nc3ccccc3)CC2)CC1 | > 58.3 µg/mL
Cc1cc(C(=O)Nc2ccc(S(=O)(=O)N3CCCC3)cc2)no1 | 2.2 µg/mL (≈ 6.56 µM)
CC(C)c1ccc(N(CC(=O)N2CCN(Cc3ccccc3)CC2)S(C)(=O)=O)cc1 | 40.5 µg/mL (≈ 94.3 µM)
COC(=O)c1ccc(S(=O)(=O)NCc2ccco2)n1C | 44.3 µg/mL (≈ 148 µM)
Cc1cccc(OC(C)C(=O)OCC(=O)N2CCN(c3ccccc3)CC2)c1 (centres undefined) | 43.4 µg/mL (≈ 113 µM)
Cc1ccc(-n2c(/C=C/c3ccccn3)nc3ccccc3c2=O)cc1 | 0.6 µg/mL (≈ 1.77 µM)
CC(OC(=O)c1ccc(Cl)nc1)C(=O)NC(C)(C)C (centres undefined) | > 42.7 µg/mL
